# Where a name gives a salt, the structure may show the parent alone. Read-outs that look alike come from different tables or passages of the source.
# What was measured:
# HEKsst2 = experiment: Chemotoxicity, colony formation assay (CFA), HEKsst2; assay type: cell-based; conditions: for IC50: read-out: half maximum inhibitor concentrations (IC50)
# Experimental: (§1) HEK293 cells were obtained from the German Resource Center for Biological Material (DSMZ, Braunschweig, Germany) and grown in Dulbecco’s modified Eagle´s medium supplemented with 10% fetal calf serum (FCS) in a humidified atmosphere containing 5% CO2. Cells were transfected with plasmid, encoding murine HA-tagged SSTR2 receptors using lipofectamine according to the manufacturing instructions (Thermofisher, Darmstadt, Germany). Stable transfectants were selected in the presence of 500 µg/mL G-418 and characterized using radioligand binding assays, Western blot analyses, surface ELISA assays and immunocytochemistry as described previously. Non-transfected HEK293 cells were maintained under equal conditions as HEKsst2 except for the addition of G-418. In the following, HEK293 cells and SSTR2 transfected HEK293 cells are termed as HEK and HEKsst2, respectively. The human prostate carcinoma cell line PC3 (ATCC®, Manassas, VA, USA) was cultured in a RPMI medium with 10% (v/v) FCS and 1% (v/v) non-essential amino acids (NEA). […] The culture medium of each cell line was renewed every 2–3 days. Via a PCR test, each cell line is proven to be free of mycoplasmas.
# (§2) HEKsst2 and PC3 were plated in T75 flasks on day zero. […] Cells were incubated in DMEM (HEKsst2) or an RPMI 1640 (PC3) nutrient-deficient medium (lacking medium additives and FCS) until day three at 37 °C. For a further two days, HEKsst2 and PC3 were incubated in a full medium (with medium additives and FCS). On day five, cells were trypsinized and plated for the CFAs.
# (§3) To determine the radiosensitivity and radiotoxicity, the clonogene cell survival was analyzed. Colony formation assays were performed as described earlier. […] Briefly, after detaching the treated cells, an aliquot of the cell suspension per dose point was distributed in T25 culture flasks for the colony formation test and is placed in an incubator for 7 (HEKsst2) or 10 days (PC3). To stop colony formation, the cells were fixed with ethanol 80% (v/v) followed by staining with crystal violet solution. The colony counting was carried out under a microscope (25× magnification). Colonies of more than 50 cells were scored as survivors. The plating efficiency (PE) and the survival rate (survival fraction SF) were calculated for irradiated and unirradiated cells based on the number of seeded cells.
# (§4) To examine the statistical significance, an unpaired student’s t-test was used. A difference between two independent samples is significant if the probability of error p ≤ 0.05. For the statistical evaluation, MS Office Excel was used. […]
# PC3 [1] = experiment: Chemotoxicity, colony formation assay (CFA), PC3; assay type: cell-based, human; conditions: for Survival Fraction: day one to three in deficient RPMI 1640, 2 days full medium, CFA, ± SD; for IC50: Homo sapiens, PC-3
# Experimental: as §1, §2, §3, §4
# [2] = system: cell lines HEKsst2 and PC3; experiment: IC20/IC40 of single epidrugs by colony formation assay, HEKsst2 and PC3; assay type: cell-based
# Experimental: as §2
# To determine the radiosensitivity and radiotoxicity, the clonogene cell survival was analyzed. Colony formation assays were performed as described earlier. The following steps have been done for each of the treatment procedures. Briefly, after detaching the treated cells, an aliquot of the cell suspension per dose point was distributed in T25 culture flasks for the colony formation test and is placed in an incubator for 7 (HEKsst2) or 10 days (PC3). To stop colony formation, the cells were fixed with ethanol 80% (v/v) followed by staining with crystal violet solution. The colony counting was carried out under a microscope (25× magnification). Colonies of more than 50 cells were scored as survivors. The plating efficiency (PE) and the survival rate (survival fraction SF) were calculated for irradiated and unirradiated cells based on the number of seeded cells.
# To determine the Bmax values and the Kd, the GraphPad Prism 9.0 software was used. Confidence Intervals (CI) express a 95% likelihood of the nonlinear fit.
# PC3 [3] = conditions: PC3 compared to HEKsst2; cited from earlier work
# Text: The radiosensitivity expressed as SF after external X-ray irradiation is similar for the cell lines HEKsst2 and PC3 (Figure 4). […] One exception is the dose point at 0.6 Gy X-rays for not stimulated vs. stimulated PC3 cells. […] Whereas the radiosensitivity of non-stimulated HEK ...
# [4] = system: Neuroendocrine Tumor Cells; design: method as in PMID 30796167; conditions: 5-fluorouracil in combination with decitabine or tacedinaline; cited from earlier work
# [5] = design: method as in PMID 25600060; conditions: fractionated external radiation; cited from earlier work
# [6] = system: relapsed or refractory neuroblastoma; design: method as in PMID 34270348; conditions: I-131-MIBG in combination with vorinostat, phase II; cited from earlier work
# Text: An overview of studies investigating the synergistic improvement of cancer therapy using HDACi in clinical trials is given by Hontecillas-Prieto et al..
structure (smiles),measurement,setting,value
"Nc1ncn([C@H]2C[C@H](O)[C@@H](CO)O2)c(=O)n1 [5-aza-dC, 5-aza-2′-deoxycytidine]",Survival Fraction,"HEKsst2; 0.01 µM 5-aza-dC, added day one to day three in nutrient-deficient DMEM, then 2 days full medium, CFA day five, mean ± SD, three independent trials in triplicate",97.9 ± 1.8%
same,Survival Fraction,"HEKsst2; 0.05 µM 5-aza-dC, day one to three in deficient medium, 2 days full medium, CFA, ± SD",118.0 ± 31%
same,Survival Fraction,"HEKsst2; 0.1 µM 5-aza-dC, day one to three in deficient medium, 2 days full medium, CFA, ± SD",83.2 ± 4.8%
same,Survival Fraction,"HEKsst2; 0.5 µM 5-aza-dC, day one to three in deficient medium, 2 days full medium, CFA, ± SD",96.6 ± 13.2%
same,Survival Fraction,"HEKsst2; 1.0 µM 5-aza-dC, day one to three in deficient medium, 2 days full medium, CFA, ± SD",93.7 ± 1.3%
same,Survival Fraction,"HEKsst2; 5.0 µM 5-aza-dC, day one to three in deficient medium, 2 days full medium, CFA, ± SD",42.3 ± 4.8%
same,Survival Fraction,"HEKsst2; 10 µM 5-aza-dC, day one to three in deficient medium, 2 days full medium, CFA, ± SD",18.6 ± 0.8%
same,Survival Fraction,"HEKsst2; 25 µM 5-aza-dC, day one to three in deficient medium, 2 days full medium, CFA, ± SD",1.7 ± 0.4%
same,IC50,"HEKsst2; 5-aza-dC as single epidrug, HEKsst2, CFA",3.9 µM
same,Survival Fraction,PC3 [1]; 0.01 µM 5-aza-dC,67.1 ± 3.3%
same,Survival Fraction,PC3 [1]; 0.05 µM 5-aza-dC,52.1 ± 19.0%
same,Survival Fraction,PC3 [1]; 0.1 µM 5-aza-dC,69.4 ± 2.1%
same,Survival Fraction,PC3 [1]; 0.5 µM 5-aza-dC,41.6 ± 1.8%
same,Survival Fraction,PC3 [1]; 1.0 µM 5-aza-dC,24.9 ± 2.0%
same,Survival Fraction,PC3 [1]; 5.0 µM 5-aza-dC,27.5 ± 3.2%
same,Survival Fraction,PC3 [1]; 10 µM 5-aza-dC,9.4 ± 0.3%
same,Survival Fraction,PC3 [1]; 25 µM 5-aza-dC,1.9 ± 0.02%
same,IC50,PC3 [1],0.3 µM
same,IC20,"[2]; 5-aza-dC, value used for both HEKsst2 and PC3, CFA",0.25 µM
same,survival of 5-aza-dC treated cells,PC3 [3],lower survival
O=c1[nH]cc(F)c(=O)[nH]1 [5-fluorouracil],radiosensitization,[4],significant effects on radiosensitization
"CCCC(CCC)C(=O)O [VPA, valproic acid sodium salt]",Survival Fraction,"HEKsst2; 0.5 mM VPA, day one to three in deficient medium, 2 days full medium, CFA, ± SD",78.7 ± 10.8%
same,Survival Fraction,"HEKsst2; 1.0 mM VPA, day one to three in deficient medium, 2 days full medium, CFA, ± SD",67.5 ± 15.9%
same,Survival Fraction,"HEKsst2; 2.5 mM VPA, day one to three in deficient medium, 2 days full medium, CFA, ± SD",18.5 ± 2.2%
same,Survival Fraction,"HEKsst2; 5.0 mM VPA, day one to three in deficient medium, 2 days full medium, CFA, ± SD",21.0 ± 5.1%
same,Survival Fraction,"HEKsst2; 10 mM VPA, day one to three in deficient medium, 2 days full medium, CFA, ± SD",53.5 ± 5.8%
same,Survival Fraction,"HEKsst2; 25 mM VPA, day one to three in deficient medium, 2 days full medium, CFA, ± SD",8.0 ± 0.8%
same,IC50,HEKsst2,1850 µM
same,Survival Fraction,PC3 [1]; 0.1 mM VPA,95.6 ± 4.5%
same,Survival Fraction,PC3 [1]; 0.5 mM VPA,95.6 ± 2.3%
same,Survival Fraction,PC3 [1]; 1.0 mM VPA,72.6 ± 11.6%
same,Survival Fraction,PC3 [1]; 2.5 mM VPA,69.4 ± 6.0%
same,Survival Fraction,PC3 [1]; 5.0 mM VPA,35.1 ± 4.6%
same,Survival Fraction,PC3 [1]; 10 mM VPA,24.0 ± 1.2%
same,Survival Fraction,PC3 [1]; 25 mM VPA,1.2 ± 1.1%
same,Survival Fraction,PC3 [1]; 50 mM VPA,1.7 ± 1.1%
same,IC50,PC3 [1]; read-out: IC50,3900 µM
same,IC20,[2],600 µM
same,IC40,"[2]; VPA, value used for both HEKsst2 and PC3, CFA",1000 µM
same,radiosensitization,[5],radiosensitization effect
O=C(CCCCCCC(=O)Nc1ccccc1)NO [vorinostat],radiation sensitizing,[6],beneficial radiation sensitizing properties

# Reference: publication PMC9140012, “Epigenetic-Like Stimulation of Receptor Expression in SSTR2 Transfected HEK293 Cells as a New Therapeutic Strategy” (Cancers, 2022)
